The values that follow come from patent US20240076297A1, “ADENOSINE A2A AND A2B RECEPTOR DUAL ANTAGONISTS FOR IMMUNO-ONCOLOGY” (Merck Sharp & Dohme LLC, priority 2020, published 2024).

Assay [1] concerns the target T1, human A2A adenosine receptor (Homo sapiens (Human), UniProt P29274). The assay can be described thus: A2A binding affinity using SPA, Method (B). Particulars: [3H] SCH58261, A2A receptor-expressing membranes. From the text:
(§1) Method (A) describes the procedure used to measure A2A binding affinity using radioligand binding. Method (B) describes the procedure used to measure A2A binding affinity using SPA technology. The method used to measure A2B binding affinity is also described below. The method used to determine the A2A IC50 value reported for each compound in the table is indicated next to the reported value. The A2B IC50 value measured using the A2B binding affinity assay is shown in the table next to the compound under the corresponding A2A value.
The A2A receptor affinity binding assay measured the amount of binding of a tritiated ligand with high affinity for the A2A adenosine receptor to membranes made from HEK293 or CHO cells recombinantly expressing the human A2A adenosine receptor, in the presence of varying concentrations of a compound of the invention. The data were generated using either filtration binding or a homogenous scintillation proximity assay (SPA).
Method (B): Measurement of A2A Binding Affinity Using SPA
Binding affinity using SPA was conducted as follows. Test compounds (50 nL) were dispensed into individual wells of a 384-well OptiPlate™ well (Perkin Elmer) by Echo® acoustic liquid transfer (Labcyte). 20 μL of 1.25 nM [^3H] SCH58261 ((7-(2-phenylethyl)-5-amino-2-(2-furyl)-pyrazolo-[4,3-e]-1,2,4-triazolo[1,5-c]pyrimidine)) in DPBS assay buffer (Dulbecco's phosphate buffered saline without calcium and magnesium, ThermoFisher Scientific, Cat. No. A1285601) supplemented with 10 mM MgCl2 was added. A2A receptor-expressing membranes were incubated with 20 μg/mL adenosine deaminase (Roche, Cat. No. 10 102 105 001) for 15 min at room temperature. The receptor-expressing membranes were then combined with wheat germ agglutinin-coated yttrium silicate SPA beads (GE Healthcare, Cat. No. RPNQ0023) in a ratio of 1:1000 (w/w) and incubated for 30 min at room temperature. 30 μL of the membrane/bead mixture (0.25 μg and 25 μg per well respectively) were added to the 384-well OptiPlate™ well. To define total and non-specific binding, wells containing 1% DMSO or 1 μM CGS15943 (Tocris Bioscience, Cat. No. 1699) respectively were also included in the experiment. The plate was incubated for 1 h at room temperature with agitation. The assay plate was then incubated for an h to allow the beads to settle before data were collected using a TopCount® (Perkin Elmer) scintillation counter. After normalization to total and non-specific binding, the percent effect at each compound concentration was calculated. The plot of percent effect versus the log of compound concentration was analyzed electronically using a 4-parameter logistic fit based on the Levenberg-Marquardt algorithm to generate IC50 values.

Assay [2] addresses human A2B adenosine receptor (Homo sapiens (Human), UniProt P29275). Nature of the assay: A2B binding affinity, radioligand filtration binding assay. The settings on record: HEK293 membranes expressing human A2B, tritiated proprietary antagonist.
Description: as §1
Measurement of A2B Binding Affinity
The reported affinity of the compounds of the invention for the human A2B adenosine receptor was determined experimentally using a radioligand filtration binding assay. This assay measures the amount of binding of a tritiated proprietary A2B receptor antagonist, in the presence and absence of a compound of the invention, to membranes made from HEK293 cells recombinantly expressing the human A2B adenosine receptor (Perkin Elmer, Cat. No. ES-013-C).
148 μL (135 μg/mL) membranes and 2 μL test compounds were transferred to individual wells of a 96-well polypropylene assay plate and incubated for 15 to 30 min at room temperature with agitation. Tritiated radioligand was diluted to a concentration of 14 nM in assay buffer (phosphate buffered saline without Magnesium and Calcium, pH 7.4; GE Healthcare Life Sciences, Cat. No. SH30256.01) and then 50 μL of the solution were transferred to each well of the assay plate. To define total and non-specific binding, wells containing 1% DMSO and 20 μM N-ethylcarboxamidoadenosine (Tocris Bioscience, Cat. No. 1691) respectively, were also included. The wells of the assay plate were incubated at room temperature for 60 min with agitation, then filtered using a FilterMate Harvester® (Perkin Elmer) or similar equipment through a UniFilter-96@ PEI coated plate (Perkin Elmer Cat. No. 6005274 or 6005277). Filtering was achieved by aspirating the contents of the assay plate for 5 sec, then washing and aspirating the contents three times with ice-cooled wash buffer (assay buffer supplemented with 0.0025% Brij58) and allowing the vacuum manifold to dry the plate for 30 sec. The filter plate was incubated for at least 1 h at 55° C. and allowed to dry. The bottom of the filter plate was then sealed with backing tape. 40 μL Ultima Gold™ (Perkin Elmer, Cat. No. 6013329) was added to each well of the filter plate and the top of the plate was sealed with TopSeal-A PLUS® clear plate seal (Perkin Elmer, Cat. No. 6050185). The plates were then incubated for at least 20 min, and then the amount of radioactivity remaining in each well was determined using a TopCount® (Perkin Elmer) scintillation counter. After normalization to total and non-specific binding, the percent effect at each compound concentration was calculated. The plot of percent effect versus the log of compound concentration was analyzed electronically using a 4-parameter logistic fit based on the Levenberg-Marquardt algorithm to generate IC50 values.

The target of assay [3] is T1, human A2A adenosine receptor. Nature of the assay: A2A binding affinity using radioligand binding, Method (A). The settings on record: Method (A): filtration radioligand binding, [3H] SCH58261, membranes expressing human A2A. Put shortly: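 Filtration binding used HEK293 or CHO membranes (5 μg/mL) preincubated with compound for 15–30 min at RT. [3H]SCH58261 (4 nM working solution) was added in Tris pH 7.4/10 mM MgCl2/0.005% Tween20 for 60 min at RT, with 1 μM ZM241385 defining nonspecific binding. Scintillation counts gave IC50 via 4-parameter logistic fit.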

T1 sequence (P29274 whole entry): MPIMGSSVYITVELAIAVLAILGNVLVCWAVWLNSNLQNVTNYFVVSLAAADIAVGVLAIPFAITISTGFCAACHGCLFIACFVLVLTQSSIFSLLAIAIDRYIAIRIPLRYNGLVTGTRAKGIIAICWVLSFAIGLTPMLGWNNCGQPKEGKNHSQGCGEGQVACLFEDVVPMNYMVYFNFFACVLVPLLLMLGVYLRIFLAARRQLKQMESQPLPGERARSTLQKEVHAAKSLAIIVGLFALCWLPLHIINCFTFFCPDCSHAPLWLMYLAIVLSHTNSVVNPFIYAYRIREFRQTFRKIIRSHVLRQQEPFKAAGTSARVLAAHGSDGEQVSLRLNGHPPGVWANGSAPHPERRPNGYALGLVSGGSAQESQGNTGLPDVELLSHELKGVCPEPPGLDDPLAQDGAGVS
Chain of human A2B adenosine receptor (P29275 whole entry): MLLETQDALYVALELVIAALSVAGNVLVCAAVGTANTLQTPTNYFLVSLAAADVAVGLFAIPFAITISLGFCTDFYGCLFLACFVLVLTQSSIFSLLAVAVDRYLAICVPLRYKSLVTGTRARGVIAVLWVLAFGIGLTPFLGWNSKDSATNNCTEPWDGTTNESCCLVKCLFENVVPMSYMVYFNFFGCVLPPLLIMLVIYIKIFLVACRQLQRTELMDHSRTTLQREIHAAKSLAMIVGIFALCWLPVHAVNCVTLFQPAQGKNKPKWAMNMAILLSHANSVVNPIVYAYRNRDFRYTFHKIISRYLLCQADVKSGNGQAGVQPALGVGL

By IC50 is commonly meant the concentration that gives 50% inhibition. Low values mean higher potency, high ones lower potency. As to `COc1cccc2c1nc(N)n1nc(COCc3csc4ccccc34)nc21` [Example 4.8, 2-((benzo[b]thiophen-3-ylmethoxy)methyl)-7-methoxy-[1,2,4]triazolo[1,5-c]quinazolin-5-amine], the IC50 in assay [1] was 2.9 nM.

Regarding `COc1cccc2c1nc(N)n1nc(COCc3ccc(F)cc3)nc21` [Example 4.4, 2-(((4-fluorobenzyl)oxy)methyl)-7-methoxy-[1,2,4]triazolo[1,5-c]quinazolin-5-amine], in assay [1], the IC50 came to 4.7 nM.

As for `COc1cccc2c1nc(N)n1nc(COCc3c(C)ccnc3C)nc21` [Example 4.5, 2-(((2,4-dimethylpyridin-3-yl)methoxy)methyl)-7-methoxy-[1,2,4]triazolo[1,5-c]quinazolin-5-amine], in assay [1], the IC50 was determined as 8.7 nM.

In assay [1], `COc1cccc2c1nc(N)n1nc(COCCF)nc21` [Example 4.12, 2-((2-fluoroethoxy)methyl)-7-methoxy-[1,2,4]triazolo[1,5-c]quinazolin-5-amine] registered an IC50 of 7.2 nM.

Consider `COc1cccc2c1nc(N)n1nc(CO[C@@H](C)c3ccc(F)cc3)nc21` [Example 4.7, (S)-2-((1-(4-fluorophenyl)ethoxy)methyl)-7-methoxy-[1,2,4]triazolo[1,5-c]quinazolin-5-amine], for which the IC50 in assay [1] was found to be 4.6 nM.

`COc1cccc2c1nc(N)n1nc(COCC(F)F)nc21` [Example 4.10, 2-((2,2-difluoroethoxy)methyl)-7-methoxy-[1,2,4]triazolo[1,5-c]quinazolin-5-amine] showed an IC50 in assay [1] of 4.4 nM.

Turning to `COc1cc(F)cc2c1nc(N)n1nc(COCc3ccc(C(C)(C)O)cc3)nc21` [Example 4.14, 2-(4-(((5-amino-9-fluoro-7-methoxy-[1,2,4]triazolo[1,5-c]quinazolin-2-yl)methoxy)methyl)phenyl)propan-2-ol], the IC50 in assay [2] (value given with marker (A)) was 9.1 nM; in assay [3] it was 0.2 nM.

Regarding `COc1cc2nc(N)n3nc(CCS(=O)(=O)c4ccc(F)cc4)nc3c2cc1F` [Example 13.13, 9-fluoro-2-(2-((4-fluorophenyl)sulfonyl)ethyl)-8-methoxy-[1,2,4]triazolo[1,5-c]quinazolin-5-amine], the figures for the IC50 in assay [2] (value given with marker (A)) and in assay [3] were 1040 nM and 57.7 nM, respectively.

As for `COc1cccc2c1nc(N)n1nc(CC(C)(C)O)nc21` [Example 18.2, 1-(5-amino-7-methoxy-[1,2,4]triazolo[1,5-c]quinazolin-2-yl)-2-methylpropan-2-ol], the IC50 was found to be 128 nM in assay [2] (value given with marker (B)) and 30.8 nM in assay [3].

With `COc1cccc2c1nc(N)n1nc(CCC3CCc4c(nnn4C(C)C)C3)nc21` (single isomer, unassigned) [Example 5.2B, (R or S)-2-(2-(1-isopropyl-4,5,6,7-tetrahydro-1H-benzo[d][1,2,3]triazol-5-yl)ethyl)-7-methoxy-[1,2,4]triazolo[1,5-c]quinazolin-5-amine], the IC50 in assay [2] (value given with marker (A)) turned out to be 12 nM; in assay [3] it was 0.8 nM.

With `COc1cccc2c1nc(N)n1nc([C@@H](C)CO)nc21` [Example 17.3, (R)-2-(5-amino-7-methoxy-[1,2,4]triazolo[1,5-c]quinazolin-2-yl)propan-1-ol], the IC50 was 2990 nM in assay [2] (value given with marker (B)) and 264 nM in assay [3].

`COc1cccc2c1nc(N)n1nc(CCS(=O)(=O)c3ccc(F)cc3)nc21` [Example 13.4, 2-(2-((4-fluorophenyl)sulfonyl)ethyl)-7-methoxy-[1,2,4]triazolo[1,5-c]quinazolin-5-amine]: the figures for the IC50 in assay [2] (value given with marker (A)) and in assay [3] were 973 nM and 0.3 nM, respectively.

Consider `COc1cccc2c1nc(N)n1nc(CC3CC3c3ccc(C(C)(C)N)cc3)nc21` (single isomer, unassigned) [Example 8.5B, 2-(((IR,2S or 1S,2R)-2-(4-(2-aminopropan-2-yl)phenyl)cyclopropyl)methyl)-7-methoxy-[1,2,4]triazolo[1,5-c]quinazolin-5-amine], for which the IC50 amounted to 3.3 nM in assay [2] (value given with marker (A)) and 1.3 nM in assay [3].

For `COc1cccc2c1nc(N)n1nc(C[C@@H](C)O)nc21` [Example 18.4, (R)-1-(5-amino-7-methoxy-[1,2,4]triazolo[1,5-c]quinazolin-2-yl)propan-2-ol], the values for the IC50 in assay [2] (value given with marker (B)) and in assay [3] were 209 nM and 15.1 nM, respectively.

With `COc1cc(F)cc2c1nc(N)n1nc(CC3CC3c3ccc(C(C)(C)N)cc3)nc21` (single isomer, unassigned) [Example 8.4B, 2-(((1R,2S or 1S,2R)-2-(4-(2-aminopropan-2-yl)phenyl)-cyclopropyl)methyl)-9-fluoro-7-methoxy-[1,2,4]triazolo-[1,5-c]quinazolin-5-amine], the IC50 in assay [2] (value given with marker (A)) worked out at 139 nM; in assay [3], 3.1 nM.

On to `COc1cccc2c1nc(N)n1nc(CS(=O)(=O)c3ccccc3)nc21` [Example 6.6, 7-methoxy-2-((phenylsulfonyl)methyl)-[1,2,4]triazolo-[1,5-c]quinazolin-5-amine], for which the IC50 in assay [2] (value given with marker (B)) amounted to 3780 nM; in assay [3], 4.2 nM.

For the molecule `CCS(=O)(=O)CCc1nc2c3cc(F)c(OC)cc3nc(N)n2n1` [Example 13.12, 2-(2-(ethylsulfonyl)ethyl)-9-fluoro-8-methoxy-[1,2,4]triazolo[1,5-c]quinazolin-5-amine], the IC50 in assay [2] (value given with marker (A)) came out at 1720 nM; in assay [3] it was 165 nM.

In the case of `COc1cccc2c1nc(N)n1nc(CCC3CCc4c(nnn4C4CC(F)(F)C4)C3)nc21` (single isomer, unassigned) [Example 5.3B, (R or S)-2-(2-(1-(3,3-difluorocyclobutyl)-4,5,6,7-tetrahydro-1H-benzo[d][1,2,3]triazol-5-yl)ethyl)-7-methoxy-[1,2,4]triazolo-[1,5-c]quinazolin-5-amine], the IC50 is 3.1 nM in assay [2] (value given with marker (A)) and 0.9 nM in assay [3].

For the molecule `COc1cc(F)cc2c1nc(N)n1nc(COCc3ccc(C(O)(C(F)(F)F)C(F)(F)F)cc3)nc21` [Example 4.16, 2-(4-(((5-amino-9-fluoro-7-methoxy-[1,2,4]triazolo[1,5-c]quinazolin-2-yl)methoxy)methyl)phenyl)-1,1,1,3,3,3-hexafluoropropan-2-ol], the values for the 50% inhibitory concentration (IC50) in assay [2] (value given with marker (A)) and in assay [3] were 0.9 nM and 0.3 nM, respectively.

For the molecule `CC[C@@H](O)Cc1nc2c3cccc(OC)c3nc(N)n2n1` [Example 17.2, (R)-1-(5-amino-7-methoxy-[1,2,4]triazolo[1,5-c]quinazolin-2-yl)butan-2-ol], the values for the IC50 in assay [2] (value given with marker (B)) and in assay [3] were 307 nM and 13.9 nM, respectively.
